Experiments:
[1] = test system: Puccinia recondita f. Sp. Tritici; assay: Fungicidal activity against Puccinia recondita f. sp. tritici / wheat / leaf disc preventative (brown rust); type: in vivo; details: foliar, 200 ppm in the applied formulation, wheat leaf segments, preventative, compared to untreated control leaf disks, read-out: disease control
Summary of the method: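 Compound application precedes infection: segments of wheat cv. Kanzler, sprayed at 200 ppm, are inoculated with a spore suspension after 1 day. Incubation is at 19° C. with 75% relative humidity and 12 h light/12 h darkness, and control versus untreated leaves is rated 7 to 9 days post-application.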

[2] = test system: Puccinia recondita f. Sp. Tritici; assay: Fungicidal activity against Puccinia recondita f. sp. tritici / wheat / leaf disc curative (brown rust); type: in vivo; details: foliar, 24 h, 200 ppm in the applied formulation, wheat leaf segments, curative (applied 1 day after inoculation), compared to untreated control leaf disks, read-out: disease control
Summary of the method: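 % disease control vs untreated, scored 6–8 d post-application. Wheat cv. Kanzler segments, spore-inoculated, dark 19° C/75% RH; formulated cpd applied 1 d post-inoc; then 19° C, 75% RH, 12 h L/12 h D.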

Phakopsora Pachyrhizi = assay: Fungicidal activity against Phakopsora pachyrhizi / soybean / leaf disc preventative (Asian soybean rust); type: in vivo; details: foliar, 200 ppm in the applied formulation, soybean leaf disks, compared to untreated control leaf disks, read-out: disease control
Summary of the method: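 Preventative soybean leaf-disc test: discs on water agar sprayed with diluted formulated compound, inoculated one day later with spores on the lower surface. Held 24–36 h dark at 20°C, 75% rh, then 12 h light/day; percent disease control versus untreated discs scored 12–14 days after application.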

[3] = test system: Glomerella lagenarium (Colletotrichum lagenarium); assay: Fungicidal activity against Glomerella lagenarium (Colletotrichum lagenarium) liquid culture / cucumber / preventative (anthracnose); type: cell-based; details: Colletotrichum orbiculare; 20 ppm in the applied formulation; liquid culture (PDB), growth inhibition measured photometrically after 3 to 4 days; compared to untreated control; read-out: disease control
Summary of the method: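 Photometric read-out of fungal growth after 2–7 days, expressed as percent antifungal activity versus untreated check. Cryo-stored conidia in PDB; compound at 20 ppm; dark, 24 °C, 96% RH.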

COC(C)C(=O)N(Cc1ccc(-c2noc(C(F)(F)F)n2)cc1)Cc1ccco1 (stereo not shown) [Compound 1.472, N-(2-furylmethyl)-2-methoxy-N-[[4-[5-(trifluoromethyl)-1,2,4-oxadiazol-3-yl]phenyl]methyl]-propanamide]
≥ 80%: pest or weed control at 200 ppm [1] | pest or weed control at 200 ppm [2] | pest or weed control at 200 ppm (Phakopsora Pachyrhizi) | inhibition of growth at 20 ppm [3]

CON(Cc1ccc(-c2noc(C(F)(F)F)n2)cc1)C(=O)Cc1ccccc1 [Compound 1.4, N-methoxy-2-phenyl-N-[[4-[5-(trifluoromethyl)-1,2,4-oxadiazol-3-yl]phenyl]methyl]-acetamide]
≥ 80%: pest or weed control at 200 ppm [1] | pest or weed control at 200 ppm [2] | pest or weed control at 200 ppm (Phakopsora Pachyrhizi) | inhibition of growth at 20 ppm [3]

CC(C)C(=O)N(Cc1ccc(-c2noc(C(F)(F)F)n2)cc1)CC1CC1 [Compound 1.206, N-(cyclopropylmethyl)-2-methyl-N-[[4-[5-(trifluoromethyl)-1,2,4-oxadiazol-3-yl]phenyl]methyl]-propanamide]
≥ 80%: pest or weed control at 200 ppm [1] | pest or weed control at 200 ppm [2] | pest or weed control at 200 ppm (Phakopsora Pachyrhizi) | inhibition of growth at 20 ppm [3]

CN(Cc1ccc(-c2noc(C(F)(F)F)n2)cc1)C(=O)C1CC1 [Compound 1.532, N-methyl-N-[[4-[5-(trifluoromethyl)-1,2,4-oxadiazol-3-yl]phenyl]methyl]-cyclopropane-carboxamide]
≥ 80%: pest or weed control at 200 ppm [1] | pest or weed control at 200 ppm [2] | pest or weed control at 200 ppm (Phakopsora Pachyrhizi) | inhibition of growth at 20 ppm [3]

CON(Cc1ccc(-c2noc(C(F)(F)F)n2)cc1)C(=O)C1CCCC1 [Compound 1.27, N-methoxy-N-[[4-[5-(trifluoromethyl)-1,2,4-oxadiazol-3-yl]phenyl]methyl]-cyclopentane-carboxamide]
≥ 80%: pest or weed control at 200 ppm [1] | pest or weed control at 200 ppm [2] | pest or weed control at 200 ppm (Phakopsora Pachyrhizi) | inhibition of growth at 20 ppm [3]

CON(Cc1ccc(-c2noc(C(F)(F)F)n2)cc1)C(=O)C1(C(F)(F)F)CC1 [Compound 1.6, N-methoxy-1-(trifluoromethyl)-N-[[4-[5-(trifluoromethyl)-1,2,4-oxadiazol-3-yl]phenyl]methyl]-cyclopropane-carboxamide]
≥ 80%: pest or weed control at 200 ppm [1] | pest or weed control at 200 ppm [2] | pest or weed control at 200 ppm (Phakopsora Pachyrhizi) | inhibition of growth at 20 ppm [3]

C#CCN(Cc1ccc(-c2noc(C(F)(F)F)n2)cc1)C(=O)C1CC1C (stereo not shown) [Compound 1.181, 2-methyl-N-prop-2-ynyl-N-[[4-[5-(trifluoromethyl)-1,2,4-oxadiazol-3-yl]phenyl]methyl]-cyclopropane-carboxamide]
≥ 80%: pest or weed control at 200 ppm [1] | pest or weed control at 200 ppm [2] | pest or weed control at 200 ppm (Phakopsora Pachyrhizi) | inhibition of growth at 20 ppm [3]

COCCN(Cc1ccc(-c2noc(C(F)(F)F)n2)cc1)C(=O)C1CC1C (stereo not shown) [Compound 1.341, N-(2-methoxyethyl)-2-methyl-N-[[4-[5-(trifluoromethyl)-1,2,4-oxadiazol-3-yl]phenyl]methyl]-cyclopropane-carboxamide]
≥ 80%: pest or weed control at 200 ppm [1] | pest or weed control at 200 ppm [2] | pest or weed control at 200 ppm (Phakopsora Pachyrhizi) | inhibition of growth at 20 ppm [3]

CCC(C)N(Cc1ccc(-c2noc(C(F)(F)F)n2)cc1)C(=O)C1CCCO1 (stereo not shown) [Compound 1.398, N-sec-butyl-N-[[4-[5-(trifluoromethyl)-1,2,4-oxadiazol-3-yl]phenyl]methyl]-tetrahydrofuran-2-carboxamide]
≥ 80%: pest or weed control at 200 ppm [1] | pest or weed control at 200 ppm [2] | pest or weed control at 200 ppm (Phakopsora Pachyrhizi) | inhibition of growth at 20 ppm [3]

COCCN(Cc1ccc(-c2noc(C(F)(F)F)n2)cc1)C(=O)C1OCCO1 [Compound 1.360, N-(2-methoxyethyl)-N-[[4-[5-(trifluoromethyl)-1,2,4-oxadiazol-3-yl]phenyl]methyl]-1,3-dioxolane-2-carboxamide]
≥ 80%: pest or weed control at 200 ppm [1] | pest or weed control at 200 ppm [2] | pest or weed control at 200 ppm (Phakopsora Pachyrhizi) | inhibition of growth at 20 ppm [3]

COC(C)C(=O)N(Cc1ccc(-c2noc(C(F)(F)F)n2)c(F)c1)OC (stereo not shown) [Compound 1.783, N-[[3-fluoro-4-[5-(trifluoromethyl)-1,2,4-oxadiazol-3-yl]phenyl]methyl]-N,2-dimethoxy-propanamide]
≥ 80%: pest or weed control at 200 ppm [1] | pest or weed control at 200 ppm [2] | pest or weed control at 200 ppm (Phakopsora Pachyrhizi) | inhibition of growth at 20 ppm [3]

CC(C)C(=O)N(Cc1ccc(-c2noc(C(F)(F)F)n2)cc1)CC1CCCO1 (stereo not shown) [Compound 1.412, 2-methyl-N-(tetrahydrofuran-2-ylmethyl)-N-[[4-[5-(trifluoromethyl)-1,2,4-oxadiazol-3-yl]phenyl]methyl]-propanamide]
≥ 80%: pest or weed control at 200 ppm [1] | pest or weed control at 200 ppm [2] | pest or weed control at 200 ppm (Phakopsora Pachyrhizi) | inhibition of growth at 20 ppm [3]

CON(Cc1ccc(-c2noc(C(F)(F)F)n2)c(F)c1)C(=O)C1CC1 [Compound 1.579, N-[[3-fluoro-4-[5-(trifluoromethyl)-1,2,4-oxadiazol-3-yl]phenyl]methyl]-N-methoxy-cyclopropane-carboxamide]
≥ 80%: pest or weed control at 200 ppm [1] | pest or weed control at 200 ppm [2] | pest or weed control at 200 ppm (Phakopsora Pachyrhizi) | inhibition of growth at 20 ppm [3]

CN(Cc1ccc(-c2noc(C(F)(F)F)n2)cc1)C(=O)C(C)(C)O [Compound 1.781, 2-hydroxy-N,2-dimethyl-N-[[4-[5-(trifluoromethyl)-1,2,4-oxadiazol-3-yl]phenyl]methyl]-propanamide]
≥ 80%: pest or weed control at 200 ppm [1] | pest or weed control at 200 ppm [2] | pest or weed control at 200 ppm (Phakopsora Pachyrhizi) | inhibition of growth at 20 ppm [3]

CCON(Cc1ccc(-c2noc(C(F)(F)F)n2)cc1)C(=O)C1(C)CC1 [Compound 1.621, N-ethoxy-1-methyl-N-[[4-[5-(trifluoromethyl)-1,2,4-oxadiazol-3-yl]phenyl]methyl]-cyclopropane-carboxamide]
≥ 80%: pest or weed control at 200 ppm [1] | pest or weed control at 200 ppm [2] | pest or weed control at 200 ppm (Phakopsora Pachyrhizi) | inhibition of growth at 20 ppm [3]

CC1CC1C(=O)N(C)Cc1ccc(-c2noc(C(F)(F)F)n2)cc1 (stereo not shown) [Compound 1.520, N,2-dimethyl-N-[[4-[5-(trifluoromethyl)-1,2,4-oxadiazol-3-yl]phenyl]methyl]-cyclopropane-carboxamide]
≥ 80%: pest or weed control at 200 ppm [1] | pest or weed control at 200 ppm [2] | pest or weed control at 200 ppm (Phakopsora Pachyrhizi) | inhibition of growth at 20 ppm [3]
